By Ki is commonly meant a measure of affinity in units of concentration, obtained from inhibition or displacement.

The test addresses human α5β3γ2 receptors (α5-GABAA receptor) (Homo sapiens (Human), UniProt P18507+P31644). Nature of the test: 3H-flunitrazepam competition binding, human α5β3γ2 GABAA receptor. The note with it: HEK293 cell membranes, 1 nM 3H-flunitrazepam; read-out: α5-GABAAR Ki. As to the method:
The affinity of the compound to each subtype of GABAA receptor was determined by competing for the binding of ^3H-flunitrazepam to HEK293 cells stably expressing human α1β3γ2, α2β3γ2, α3β3γ2, and α5β3γ2 receptors.
The cells were suspended in 50 mM Tris-HCl buffer (pH=7.4), homogenized 10 times on ice with a homogenizer for 20 seconds, and centrifuged at 1000 g for 10 minutes at 4° C. The supernatant was collected, and the above steps were repeated. The supernatant was centrifuged at 4° C. (33800 g; Thermo, rotor: A27-8×50) for 60 minutes, and the precipitate was resuspended in Tris buffer (50 mM Tris-HCl, 10 mM MgCl2, 0.5 mM EDTA, 10% glycerol). Protein was measured (BCA method, Pierce), and 1 mL aliquots were prepared and stored at −80° C.
The radioligand competition binding assay was performed in a 200 μL system (96-well plate) containing 100 μL of cell membrane. The concentration of ^3H-flunitrazepam was 1 nM and the concentration of the test compound was in the range of […]. Flumazenil was used as a control. 1 μL of 2 mM flumazenil (final concentration […]) was added to the low signal control well (Low control, LC), and 1 μL of DMSO was added to the high signal control well (High control, HC). The final concentration of target membrane protein was […]. All test compound sample storage solutions were 10 mM. The working concentration of the samples was to dilute all the samples to 0.2 mM with DMSO, followed by 4-fold serial gradient dilutions for a total of 8 concentration gradients. The 96-well plate was sealed with a sealing film, and then incubated on a shaker at room temperature for 1 hour. At the same time, the GF/C filter plate was soaked in soaking buffer (0.3% PEI, stored at 4° C.) for at least 0.5 hours. After the binding incubation was completed, the cells were collected onto a GF/C filter plate using a cell harvester. The plate was washed four times with washing buffer (50 mM Tris-HCl, pH 7.4, stored at 4° C.). After drying in a 50° C. oven for 1 hour, the bottom of the dried GF/C filter plate was sealed. The residual radioactivity on the filter membrane was detected using liquid scintillation counting. 50 μL of scintillation fluid was added to each well, and the plate was sealed. The readings were taken using a Microbeta2. The inhibitory activity of the test sample on the binding of ^3H-flunitrazepam to GABAA receptor membrane proteins was calculated, and the IC50 of each test sample was calculated by dose-effect curve fitting (GraphPad Prism 5 software), and the Ki of the sample was calculated from the IC50, thus evaluating the binding ability of the sample to the various subtypes of GABAA receptors.
In the case of `CCNC(=O)C1=CCCN(c2ccc(OCc3c(C)nnn3-c3ccc(C(F)F)cc3)nn2)C1` [Example 172, 1-(6-((1-(4-(Difluoromethyl)phenyl)-4-methyl-1H-1,2,3-triazol-5-yl)methoxy)pyridazin-3-yl)-N-ethyl-1,2,5,6-tetrahydropyridine-3-carboxamide], the Ki was 0.67 nM.
Consider `CNC(=O)[C@@H]1CN(c2ccc(OCc3c(C)nnn3-c3ccc(C(F)F)cc3)nn2)CCO1` [Example 38, (S)-4-(6-((1-(4-(Difluoromethyl)phenyl)-4-methyl-1H-1,2,3-triazol-5-yl)methoxy)pyridazin-3-yl)-N-methylmorpholine-2-carboxamide], for which the Ki is 2.48 nM.
For `Cc1nnn(-c2ccc(C(F)F)cc2)c1COc1ccc(N2CCCN(S(C)(=O)=O)CC2)nn1` [Example 106, 1-(6-((1-(4-(Difluoromethyl)phenyl)-4-methyl-1H-1,2,3-triazol-5-yl)methoxy)pyridazin-3-yl)-4-(methylsulfonyl)-1,4-diazepane], the Ki was 7.39 nM.
In the case of `Cc1nnn(-c2ccc(C(F)F)cc2)c1COc1ccc(N2CC(C(=O)Nc3cnn(C(C)C)c3)C2)nn1` [Example 150, 1-(6-((1-(4-(Difluoromethyl)phenyl)-4-methyl-1H-1,2,3-triazol-5-yl)methoxy)pyridazin-3-yl)-N-(1-isopropyl-1H-pyrazol-4-yl)azetidine-3-carboxamide] it was 2.35 nM; in that of `COC1CCN(c2ccc(OCc3c(C)nnn3-c3ccc(C(F)F)cc3)nn2)C1` (stereo not drawn) [Example 1, 3-((1-(4-(Difluoromethyl)phenyl)-4-methyl-1H-1,2,3-triazol-5-yl)methoxy)-6-(3-methoxypyrrolidin-1-yl)pyridazine], 1.98 nM; in that of `O=C1CN(c2ccc(OCc3c(C4CC4)nnn3-c3ccc(C(F)F)cc3)nn2)CCN1` [Example 83, 4-(6-((4-Cyclopropyl-1-(4-(difluoromethyl)phenyl)-1H-1,2,3-triazol-5-yl)methoxy)pyridazin-3-yl)piperazin-2-one], 2.6 nM.
In the case of `Cc1nnn(-c2ccc(F)cc2)c1COc1ccc(N2CCN(CC(F)(F)F)C(=O)C2)nn1` [Example 94, 4-(6-((1-(4-Fluorophenyl)-4-methyl-1H-1,2,3-triazol-5-yl)methoxy)pyridazin-3-yl)-1-(2,2,2-trifluoroethyl)piperazin-2-one] it was 44.3 nM; in that of `O=C1CN(c2ccc(OCc3c(C(F)(F)F)nnn3-c3ccc(C(F)F)cc3)nn2)CCN1` [Example 191, 4-(6-((1-(4-(Difluoromethyl)phenyl)-4-(trifluoromethyl)-1H-1,2,3-triazol-5-yl)methoxy)pyridazin-3-yl)piperazin-2-one], 3.27 nM; in that of `Cc1nnn(-c2ccc(C(F)F)cc2)c1COc1ccc(N2CCN3CC(c4cccc(Cl)c4)NC(=O)[C@@H]3C2)nn1` (stereo partly drawn) [Example 205, (9aS)-3-(3-Chlorophenyl)-8-(6-((1-(4-(difluoromethyl)phenyl)-4-methyl-1H-1,2,3-triazol-5-yl)methoxy)pyridazin-3-yl)hexahydro-2H-pyrazino[1,2-a]pyrazin-1(6H)-one], 2.1 nM.
The result for `Cc1nnn(-c2ccc(C(F)F)cc2)c1COc1nnc(N2CCNC(=O)C2)c2ncccc12` [Example 137, 4-(5-((1-(4-(Difluoromethyl)phenyl)-4-methyl-1H-1,2,3-triazol-5-yl)methoxy)pyrido[2,3-d]pyridazin-8-yl)piperazin-2-one] reads 0.49 nM; that for `O=C1CN(c2ccc(OCc3c(Cl)nnn3-c3ccc(Cl)cc3)nn2)CCN1` [Example 190, 4-(6-((4-Chloro-1-(4-chlorophenyl)-1H-1,2,3-triazol-5-yl)methoxy)pyridazin-3-yl)piperazin-2-one], 1.96 nM; that for `Cc1nnn(-c2ccc(C(F)F)cc2)c1COc1ccc(N2CCN(c3cnn(C)c3)C(=O)C2)nn1` [Example 111, 4-(6-((1-(4-(Difluoromethyl)phenyl)-4-methyl-1H-1,2,3-triazol-5-yl)methoxy)pyridazin-3-yl)-1-(1-methyl-1H-pyrazol-4-yl)piperazin-2-one], 0.93 nM.
Turning to `Cc1nnn(-c2ccc(C(F)F)cc2)c1COc1nnc(N2CCN3CCNC(=O)[C@@H]3C2)c2ncccc12` [Example 206, (S)-8-(5-((1-(4-(Difluoromethyl)phenyl)-4-methyl-1H-1,2,3-triazol-5-yl)methoxy)pyrido[2,3-d]pyridazin-8-yl)hexahydro-2H-pyrazino[1,2-a]pyrazin-1(6H)-one], the Ki amounted to 0.64 nM.
The result for `Cc1nnn(-c2ccc(C(F)F)cc2)c1COc1ccc(N2CCNC(C)(C)C2=O)nn1` [Example 10, 1-(6-((1-(4-(Difluoromethyl)phenyl)-4-methyl-1H-1,2,3-triazol-5-yl)methoxy)pyridazin-3-yl)-3,3-dimethylpiperazin-2-one] reads 14.4 nM; that for `O=C1CN(c2ccc(OCc3c(Cl)nnn3-c3ccc(C(F)F)cc3)nn2)C[C@H]2COCCN12` [Example 183, (S)-8-(6-((4-Chloro-1-(4-(difluoromethyl)phenyl)-1H-1,2,3-triazol-5-yl)methoxy)pyridazin-3-yl)hexahydropyrazino[2,1-c][1,4]oxazin-6(1H)-one], 1.37 nM.
The result for `Cc1nnn(-c2ccc(C(F)F)cc2)c1COc1ccc(N2CC(=O)N3CC4CC3(C4)C2)nn1` [Example 179, 2-(6-((1-(4-(Difluoromethyl)phenyl)-4-methyl-1H-1,2,3-triazol-5-yl)methoxy)pyridazin-3-yl)tetrahydro-6H-7,8a-methanopyrrolo[1,2-a]pyrazin-4(1H)-one] reads 6.33 nM.
As for `Cc1nnn(-c2ccc(C(F)F)cc2)c1COc1ccc(N2CCN(c3cnn(C(F)F)c3)C(=O)C2)nn1` [Example 113, 1-(1-(Difluoromethyl)-1H-pyrazol-4-yl)-4-(6-((1-(4-(difluoromethyl)phenyl)-4-methyl-1H-1,2,3-triazol-5-yl)methoxy)pyridazin-3-yl)piperazin-2-one], the Ki is 1.17 nM.
`CC(=O)NC1CCN(c2ccc(OCc3c(C)nnn3-c3ccc(C(F)F)cc3)nn2)C1` (stereo not drawn) [Example 88, N-(1-(6-((1-(4-(Difluoromethyl)phenyl)-4-methyl-1H-1,2,3-triazol-5-yl)methoxy)pyridazin-3-yl)pyrrolidin-3-yl)acetamide]: the Ki came out at 1.78 nM.
With `COc1cnccc1NC(=O)C1CN(c2ccc(OCc3c(C)nnn3-c3ccc(C(F)F)cc3)nn2)C1` [Example 149, 1-(6-((1-(4-(Difluoromethyl)phenyl)-4-methyl-1H-1,2,3-triazol-5-yl)methoxy)pyridazin-3-yl)-N-(3-methoxypyridin-4-yl)azetidine-3-carboxamide], the Ki is 2.04 nM.
The result for `Cc1nnn(-c2ccc(C(F)F)cc2)c1COc1ccc(N2CC(C(=O)Nc3ccnn3C)C2)nn1` [Example 102, 1-(6-((1-(4-(Difluoromethyl)phenyl)-4-methyl-1H-1,2,3-triazol-5-yl)methoxy)pyridazin-3-yl)-N-(1-methyl-1H-pyrazol-5-yl)azetidine-3-carboxamide] reads 2.14 nM; that for `Cc1nnn(-c2ccc(C(F)F)cc2)c1COc1ccc(N2CCN3CC(C(C)(C)C)NC(=O)[C@@H]3C2)nn1` (single isomer, unassigned) [Example 202], 2.32 nM; that for `Cc1nnn(-c2ccc(C(F)F)cc2)c1COc1ccc(N2CC(C(=O)Nc3cccnc3F)C2)nn1` [Example 151, 1-(6-((1-(4-(Difluoromethyl)phenyl)-4-methyl-1H-1,2,3-triazol-5-yl)methoxy)pyridazin-3-yl)-N-(2-fluoropyridin-3-yl)azetidine-3-carboxamide], 1.36 nM.
The result for `Cc1nnn(-c2ccc(F)cc2)c1COc1ccc(N2CCN3CCOC[C@@H]3C2)nn1` [Example 126, (S)-8-(6-((1-(4-Fluorophenyl)-4-methyl-1H-1,2,3-triazol-5-yl)methoxy)pyridazin-3-yl)octahydropyrazino[2,1-c][1,4]oxazine] reads 40.1 nM; that for `Cc1nnn(-c2ccc(C(F)F)cc2)c1COc1ccc(N2CCC(N(C)C)C2)nn1` (stereo not drawn) [Example 12, 1-(6-((1-(4-(Difluoromethyl)phenyl)-4-methyl-1H-1,2,3-triazol-5-yl)methoxy)pyridazin-3-yl)-N,N-dimethylpyrrolidin-3-amine], 0.89 nM.

For the origin of these results see patent US20250136581A1, “SUBSTITUTED TRIAZOLE DERIVATIVE, PREPARATION METHOD THEREFOR, PHARMACEUTICAL COMPOSITION THEREOF, AND USE THEREOF” (SHANGHAI SIMR BIOTECHNOLOGY CO., LTD., priority 2021, published 2025).
